Among the data in patent US20120039847A1, “Hepatitis C Virus Inhibitors” (priority 2010, published 2012) are IC50 values, retold here.

The subject of this test is HCV genotype 1b replicon (2209-23 cells, Huh7). Put plainly: HCV replicon assay (Renilla luciferase reporter). It counts as cell-based. Particulars: Hepatitis C virus, Huh-7, 72 h, Huh7-derived cell line 2209-23, three days incubation, luciferase readout. For orientation: Replicon systems follow genome replication, usually without infectious particles.

The structures appear in SMILES notation.

The compound `COC(=O)N[C@H](C(=O)N1CCC[C@H]1C(=O)Nc1ccc2cc(-c3ccc(-c4cnc([C@@H]5CCCN5C(=O)[C@@H](NC(=O)OC)C(C)C)[nH]4)cc3)ccc2c1)C(C)C` [I-1, ((S)-1-{(S)-2-[6-(4-{2-[(S)-1-((S)-2-Methoxycarbonylamino-3-methyl-butyryl)-pyrrolidin-2-yl]-3H-imidazol-4-yl}-phenyl)-naphthalen-2-ylcarbamoyl]-pyrrolidine-1-carbonyl}-2-methyl-propyl)-carbamic acid methyl ester] yielded a half-maximal inhibitory concentration (IC50) of 0.041 nM. In the case of `COC(=O)N[C@H](C(=O)N1CCC[C@H]1C(=O)NC1CCCc2cc(-c3ccc(-c4cnc([C@@H]5CCCN5C(=O)[C@@H](NC(=O)OC)C(C)C)[nH]4)cc3)ccc21)C(C)C` (stereo partly drawn) [I-2, [(S)-1-((S)-2-{5-[4-(5-{[(S)-1-((S)-2-Methoxycarbonylamino-3-methyl-butyryl)-pyrrolidine-2-carbonyl]-amino}-5,6,7,8-tetrahydro-naphthalen-2-yl)-phenyl]-1H-imidazol-2-yl}-pyrrolidine-1-carbonyl)-2-methyl-propyl]-carbamic acid methyl ester], 4 nM corresponded to half-maximal inhibition (IC50). Compound `COC(=O)N[C@H](C(=O)N1CCC[C@H]1C(=O)Nc1ccc2nc(-c3ccc(-c4cnc([C@@H]5CCCN5C(=O)[C@@H](NC(=O)OC)C(C)C)[nH]4)cc3)ccc2c1)C(C)C` [I-3, ((S)-1-{(S)-2-[2-(4-{2-[(S)-1-((S)-2-Methoxycarbonylamino-3-methyl-butyryl)-pyrrolidin-2-yl]-3H-imidazol-4-yl}-phenyl)-quinolin-6-ylcarbamoyl]-pyrrolidine-1-carbonyl}-2-methyl-propyl)-carbamic acid methyl ester] showed a 50% inhibitory concentration (IC50) of 0.413 nM. The result for `COC(=O)N[C@H](C(=O)N1CCC[C@H]1C(=O)NC1CCc2cc(-c3ccc(-c4cnc([C@@H]5CCCN5C(=O)[C@@H](NC(=O)OC)C(C)C)[nH]4)cc3)ccc21)C(C)C` (stereo partly drawn) [I-4, [(S)-1-((S)-2-{5-[4-(1-{[(S)-1-((S)-2-Methoxycarbonylamino-3-methyl-butyryl)-pyrrolidine-2-carbonyl]-amino}-indan-5-yl)-phenyl]-1H-imidazol-2-yl}-pyrrolidine-1-carbonyl)-2-methyl-propyl]-carbamic acid methyl ester] reads 0.31 nM.

Consider `COC(=O)N[C@H](C(=O)N1CCC[C@H]1C(=O)Nc1cccc2cc(-c3ccc(-c4cnc([C@@H]5CCCN5C(=O)[C@@H](NC(=O)OC)C(C)C)[nH]4)cc3)ccc12)C(C)C` [I-5, [(S)-1-((S)-2-{5-[4-(5-{[(S)-1-((S)-2-Methoxycarbonylamino-3-methyl-butyryl)-pyrrolidine-2-carbonyl]-amino}-naphthalen-2-yl)-phenyl]-1H-imidazol-2-yl}-pyrrolidine-1-carbonyl)-2-methyl-propyl]-carbamic acid methyl ester], for which the 50% inhibitory concentration (IC50) stood at 0.2 nM. Compound `COC(=O)N[C@H](C(=O)N1CCC[C@H]1C(=O)Nc1nccc2cc(-c3ccc(-c4cnc([C@@H]5CCCN5C(=O)[C@@H](NC(=O)OC)C(C)C)[nH]4)cc3)ccc12)C(C)C` [I-6, [(S)-1-((S)-2-{5-[4-(1-{[(S)-1-((S)-2-Methoxycarbonylamino-3-methyl-butyryl)-pyrrolidine-2-carbonyl]-amino}-isoquinolin-6-yl)-phenyl]-1H-imidazol-2-yl}-pyrrolidine-1-carbonyl)-2-methyl-propyl]-carbamic acid methyl ester] showed an IC50 of 13.9 nM. Then `COC(=O)N[C@H](C(=O)N1CCC[C@H]1C(=O)Nc1ccc2cc(-c3ccc(-c4cnc([C@@H]5CCCN5C(=O)[C@@H](NC(=O)OC)C(C)C)[nH]4)cc3)ccc2n1)C(C)C` [I-7, ((S)-1-{(S)-2-[6-(4-{2-[(S)-1-((S)-2-Methoxycarbonylamino-3-methyl-butyryl)-pyrrolidin-2-yl]-3H-imidazol-4-yl}-phenyl)-quinolin-2-ylcarbamoyl]-pyrrolidine-1-carbonyl}-2-methyl-propyl)-carbamic acid methyl ester], with 0.15 nM.

Compound `COC(=O)N[C@H](C(=O)N1CCC[C@H]1C(=O)Nc1nc2cc(-c3ccc(-c4cnc([C@@H]5CCCN5C(=O)[C@@H](NC(=O)OC)C(C)C)[nH]4)cc3)ccc2[nH]1)C(C)C` [I-8, [(S)-1-((S)-2-{5-[4-(2-{[(S)-1-((S)-2-Methoxycarbonylamino-3-methyl-butyryl)-pyrrolidine-2-carbonyl]-amino}-1H-benzoimidazol-5-yl)-phenyl]-1H-imidazol-2-yl}-pyrrolidine-1-carbonyl)-2-methyl-propyl]-carbamic acid methyl ester] had a half-inhibitory concentration (IC50) of 0.37 nM.

As to `COC(=O)N[C@H](C(=O)N1CCC[C@H]1C(=O)NC1Cc2ccc(-c3ccc(-c4cnc([C@@H]5CCCN5C(=O)[C@@H](NC(=O)OC)C(C)C)[nH]4)cc3)cc2C1)C(C)C` (stereo partly drawn) [I-9, ((S)-1-{(S)-2-[5-(4-{2-[(S)-1-((S)-2-Methoxycarbonylamino-3-methyl-butyryl)-pyrrolidin-2-yl]-3H-imidazol-4-yl}-phenyl)-indan-2-ylcarbamoyl]-pyrrolidine-1-carbonyl}-2-methyl-propyl)-carbamic acid methyl ester], the IC50 is 0.43 nM. The result for `COC(=O)N[C@H](C(=O)N1CCC[C@H]1C(=O)NC1CCc2cc(-c3ccc(-c4cnc([C@@H]5CCCN5C(=O)[C@@H](NC(=O)OC)C(C)C)[nH]4)cc3)ccc2C1)C(C)C` (stereo partly drawn) [I-10, ((S)-1-{(S)-2-[6-(4-{2-[(S)-1-((S)-2-Methoxycarbonylamino-3-methyl-butyryl)-pyrrolidin-2-yl]-3H-imidazol-4-yl}-phenyl)-1,2,3,4-tetrahydro-naphthalen-2-ylcarbamoyl]-pyrrolidine-1-carbonyl}-2-methyl-propyl)-carbamic acid methyl ester] reads 1.2 nM; that for `COC(=O)N[C@H](C(=O)N1CCC[C@H]1c1ncc(-c2ccc(-c3ccc4cc(NC(=O)[C@@H]5CCCN5C(C)=O)ccc4n3)cc2)[nH]1)C(C)C` [I-11, ((S)-1-{(S)-2-[5-(4-{6-[((S)-1-Acetyl-pyrrolidine-2-carbonyl)-amino]-quinolin-2-yl}-phenyl)-1H-imidazol-2-yl]-pyrrolidine-1-carbonyl}-2-methyl-propyl)-carbamic acid methyl ester], 0.63 nM. For the compound `COC(=O)N[C@H](C(=O)N1CCC[C@H]1C(=O)N1CCc2cc(-c3ccc(-c4cnc([C@@H]5CCCN5C(=O)[C@@H](NC(=O)OC)C(C)C)[nH]4)cc3)ccc2C1)C(C)C` [I-12, ((S)-1-{(S)-2-[5-(4-{2-[(S)-1-((S)-2-Methoxycarbonylamino-3-methyl-butyryl)-pyrrolidine-2-carbonyl]-1,2,3,4-tetrahydro-isoquinolin-6-yl}-phenyl)-1H-imidazol-2-yl]-pyrrolidine-1-carbonyl}-2-methyl-propyl)-carbamic acid methyl ester], the IC50 was 2.06 nM. The result for `COC(=O)N[C@H](C(=O)N1CCC[C@H]1c1ncc(-c2ccc(-c3ccc4cc(NC(=O)[C@@H]5CCCN5C(=O)C(C)C)ccc4n3)cc2)[nH]1)C(C)C` [I-13, ((S)-1-{(S)-2-[5-(4-{6-[((S)-1-Isobutyryl-pyrrolidine-2-carbonyl)-amino]-quinolin-2-yl}-phenyl)-1H-imidazol-2-yl]-pyrrolidine-1-carbonyl}-2-methyl-propyl)-carbamic acid methyl ester] reads 1.06 nM; that for `COC(=O)N[C@H](C(=O)N1CCC[C@H]1c1ncc(-c2ccc(-c3ccc4cc(NC(=O)[C@@H]5CCCN5C(=O)CC(C)C)ccc4n3)cc2)[nH]1)C(C)C` [I-14, [(S)-2-Methyl-1-((S)-2-{5-[4-(6-{[(S)-1-(3-methyl-butyryl)-pyrrolidine-2-carbonyl]-amino}-quinolin-2-yl)-phenyl]-1H-imidazol-2-yl}-pyrrolidine-1-carbonyl)-propyl]-carbamic acid methyl ester], 1.7 nM; that for `COC(=O)N[C@H](C(=O)N1CCC[C@H]1c1ncc(-c2ccc(-c3ccc4cc(NC(=O)[C@@H]5CCCN5C(=O)c5ccccc5)ccc4n3)cc2)[nH]1)C(C)C` [I-15, ((S)-1-{(S)-2-[5-(4-{6-[((S)-1-Benzoyl-pyrrolidine-2-carbonyl)-amino]-quinolin-2-yl}-phenyl)-1H-imidazol-2-yl]-pyrrolidine-1-carbonyl}-2-methyl-propyl)-carbamic acid methyl ester], 1.4 nM. Then `COC(=O)N[C@H](C(=O)N1CCC[C@H]1C(=O)NCc1ccc(-c2ccc(-c3cnc([C@@H]4CCCN4C(=O)[C@@H](NC(=O)OC)C(C)C)[nH]3)cc2)cc1)C(C)C` [I-16, ((S)-1-{(S)-2-[(4′-{2-[(S)-1-((S)-2-Methoxycarbonylamino-3-methyl-butyryl)-pyrrolidin-2-yl]-3H-imidazol-4-yl}-biphenyl-4-ylmethyl)-carbamoyl]-pyrrolidine-1-carbonyl}-2-methyl-propyl)-carbamic acid methyl ester], with 1.23 nM.

Broadly, the IC50 is the concentration at which inhibition is half-maximal.
